Each compound was assayed against JAK2 (JH1 domain-catalytic, Y1007F, Y1008F) kinase (Homo sapiens (Human), UniProt O60674, Y1007F/Y1008F) (assay: JAK2 JH1 Domain Binding Assay). Details: qPCR readout.
Method in brief: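 JH1 catalytic domain (Y1007F/Y1008F) expressed as NFkB DNA-binding-domain fusion in HEK293 cells, DNA-tagged. Competition with immobilized biotinylated ligand on streptavidin beads, 1 h at RT in PBS/Tween/BSA/DTT; bound kinase eluted with free ligand and quantified by qPCR.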

JAK2 (JH1 domain-catalytic, Y1007F, Y1008F) kinase, sequence (O60674 849-1124 Y1007F/Y1008F): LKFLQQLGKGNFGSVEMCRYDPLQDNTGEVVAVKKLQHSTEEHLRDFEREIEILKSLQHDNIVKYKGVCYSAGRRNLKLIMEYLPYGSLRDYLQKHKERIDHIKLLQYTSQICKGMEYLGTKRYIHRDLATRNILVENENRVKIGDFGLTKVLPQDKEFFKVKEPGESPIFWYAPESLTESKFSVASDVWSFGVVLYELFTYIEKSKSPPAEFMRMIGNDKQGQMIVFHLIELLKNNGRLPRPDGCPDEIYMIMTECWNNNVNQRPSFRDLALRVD

SMILES	Kd
COc1c[nH]c2ncc(N3CC[C@@H](N(C)C(=O)Nc4cc(C(F)(F)F)cn(C)c4=O)C[C@H]3C)nc12 [Example I-161-b, 1-((2R,4R)-1-(7-methoxy-5H-pyrrolo[2,3-b]pyrazin-2-yl)-2-methylpiperidin-4-yl)-1-methyl-3-(1-methyl-2-oxo-5-(trifluoromethyl)-1,2-dihydropyridin-3-yl)urea]	10 to 50 nM
COCCOc1n[nH]c2ncc(N3CC[C@H]4[C@H](C3)OCCN4C(=O)Nc3cc(C(F)(F)F)cn(C)c3=O)cc12 [Example I-162-a, (4aS,8aS)-6-(3-(2-methoxyethoxy)-1H-pyrazolo[3,4-b]pyridin-5-yl)-N-(1-methyl-2-oxo-5-(trifluoromethyl)-1,2-dihydropyridin-3-yl)octahydro-1H-pyrido[3,4-b][1,4]oxazine-1-carboxamide]	< 10 nM
COCCOc1n[nH]c2ncc(N3CC[C@@H]4[C@@H](C3)OCCN4C(=O)Nc3cc(C(F)(F)F)cn(C)c3=O)cc12 [Example I-162-b, (4aR,8aR)-6-(3-(2-methoxyethoxy)-1H-pyrazolo[3,4-b]pyridin-5-yl)-N-(1-methyl-2-oxo-5-(trifluoromethyl)-1,2-dihydropyridin-3-yl)octahydro-1H-pyrido[3,4-b][1,4]oxazine-1-carboxamide]	10 to 50 nM
COc1c[nH]c2ncc(N3CC[C@H]4[C@H](C3)OCCN4C(=O)Nc3cc(C(F)(F)F)cn(C)c3=O)nc12 [Example I-163-a, (4aS,8aS)-6-(7-methoxy-5H-pyrrolo[2,3-b]pyrazin-2-yl)-N-(1-methyl-2-oxo-5-(trifluoromethyl)-1,2-dihydropyridin-3-yl)octahydro-1H-pyrido[3,4-b][1,4]oxazine-1-carboxamide]	10 to 50 nM
COc1c[nH]c2ncc(N3CC[C@@H]4[C@@H](C3)OCCN4C(=O)Nc3cc(C(F)(F)F)cn(C)c3=O)nc12 [Example I-163-b, (4aR,8aR)-6-(7-methoxy-5H-pyrrolo[2,3-b]pyrazin-2-yl)-N-(1-methyl-2-oxo-5-(trifluoromethyl)-1,2-dihydropyridin-3-yl)octahydro-1H-pyrido[3,4-b][1,4]oxazine-1-carboxamide]	10 to 50 nM
COCc1cc2nc(N3CC[C@H]4[C@H](C3)OCCN4C(=O)Nc3cc(C(F)(F)F)cn(C)c3=O)cnc2[nH]1 [Example I-164-a, (4aS,8aS)-6-(6-(methoxymethyl)-5H-pyrrolo[2,3-b]pyrazin-2-yl)-N-(1-methyl-2-oxo-5-(trifluoromethyl)-1,2-dihydropyridin-3-yl)octahydro-1/-pyrido[3,4-b][1,4]oxazine-1-carboxamide]	50 to 1000 nM
COCc1cc2nc(N3CC[C@@H]4[C@@H](C3)OCCN4C(=O)Nc3cc(C(F)(F)F)cn(C)c3=O)cnc2[nH]1 [Example I-164-b, (4aR,8aR)-6-(6-(methoxymethyl)-5H-pyrrolo[2,3-b]pyrazin-2-yl)-N-(1-methyl-2-oxo-5-(trifluoromethyl)-1,2-dihydropyridin-3-yl)octahydro-1H-pyrido[3,4-b][1,4]oxazine-1-carboxamide]	10 to 50 nM
CN(C(=O)Nc1cc(C(F)(F)F)cn(C)c1=O)C12CCC(c3cnc4[nH]ncc4c3)(CC1)OC2 [Example I-168, 1-(1-(1H-pyrazolo[3,4-b]pyridin-5-yl)-2-oxabicyclo[2.2.2]octan-4-yl)-1-methyl-3-(1-methyl-2-oxo-5-(trifluoromethyl)-1,2-dihydropyridin-3-yl)urea]	< 10 nM
COc1c[nH]c2ncc([C@H]3CC[C@H](N(C)C(=O)Nc4cc(C(F)(F)F)cn(C)c4=O)CC3)nc12 [Example I-170, trans-1-(4-(7-methoxy-5H-pyrrolo[2,3-b]pyrazin-2-yl)cyclohexyl)-1-methyl-3-(1-methyl-2-oxo-5-(trifluoromethyl)-1,2-dihydropyridin-3-yl)urea]	< 10 nM
COc1c[nH]c2ncc([C@H]3CC[C@@H](N(C)C(=O)Nc4cc(C(F)(F)F)cn(C)c4=O)CC3)nc12 [Example I-171, cis-1-(4-(7-methoxy-5H-pyrrolo[2,3-b]pyrazin-2-yl)cyclohexyl)-1-methyl-3-(1-methyl-2-oxo-5-(trifluoromethyl)-1,2-dihydropyridin-3-yl)urea]	50 to 1000 nM
CN(C(=O)Nc1cc(C(C)(C)C)n([C@@H]2CCOC2)n1)C1CCN(c2cnc3[nH]ncc3c2)CC1 [Example I-173, (R)-1-(1-(1H-pyrazolo[3,4-b]pyridin-5-yl)piperidin-4-yl)-3-(5-(tert-butyl)-1-(tetrahydrofuran-3-yl)-1H-pyrazol-3-yl)-1-methylurea]	< 10 nM
CN(C(=O)Nc1cc(C(C)(C)C)n([C@H]2CCOC2)n1)C1CCN(c2cnc3[nH]ncc3c2)CC1 [Example I-174, (S)-1-(1-(1H-pyrazolo[3,4-b]pyridin-5-yl)piperidin-4-yl)-3-(5-(tert-butyl)-1-(tetrahydrofuran-3-yl)-1H-pyrazol-3-yl)-1-methylurea]	< 10 nM
CN(C(=O)Nc1cc(C(F)(F)F)ccn1)[C@@H]1CCN(c2cnc3[nH]ncc3c2)C[C@H]1F [Example I-175, 1-((3R,4R)-3-fluoro-1-(1H-pyrazolo[3,4-b]pyridin-5-yl)piperidin-4-yl)-1-methyl-3-(4-(trifluoromethyl)pyridin-2-yl)urea]	< 10 nM
CN(C(=O)Nc1cc(C(F)(F)F)ccn1)[C@H]1CCN(c2cnc3[nH]ncc3c2)C[C@@H]1F [Example I-176, 1-((3S,4S)-3-fluoro-1-(1H-pyrazolo[3,4-b]pyridin-5-yl)piperidin-4-yl)-1-methyl-3-(4-(trifluoromethyl)pyridin-2-yl)urea]	< 10 nM
Cc1cc(C(F)(F)F)cc(NC(=O)N(C)[C@@H]2CCN(c3cnc4[nH]ncc4c3)C[C@H]2F)n1 [Example I-177, 1-((3R,4R)-3-fluoro-1-(1H-pyrazolo[3,4-b]pyridin-5-yl)piperidin-4-yl)-1-methyl-3-(6-methyl-4-(trifluoromethyl)pyridin-2-yl)urea]	< 10 nM
Cc1cc(C(F)(F)F)cc(NC(=O)N(C)[C@H]2CCN(c3cnc4[nH]ncc4c3)C[C@@H]2F)n1 [Example I-178, 1-((35,4S)-3-fluoro-1-(1H-pyrazolo[3,4-b]pyridin-5-yl)piperidin-4-yl)-1-methyl-3-(6-methyl-4-(trifluoromethyl)pyridin-2-yl)urea]	< 10 nM
CN(C(=O)Nc1cc(C(F)(F)F)cn(C)c1=O)C12CC(c3ccc(NC(=O)C4CC4)nc3)(C1)C2 [Example I-179, N-(5-(3-(1-methyl-3-(1-methyl-2-oxo-5-(trifluoromethyl)-1,2-dihydropyridin-3-yl)ureido)bicyclo[1.1.1]pentan-1-yl)pyridin-2-yl)cyclopropanecarboxamnide]	10 to 50 nM
CN(C(=O)Nc1cc(C(F)(F)F)n([C@@H]2CCOC2)n1)C1CCN(c2cnc3[nH]ncc3c2)CC1 [Example I-180, (R)-1-(1-(1H-pyrazolo[3,4-b]pyridin-5-yl)piperidin-4-yl)-1-methyl-3-(1-(tetrahydrofuran-3-yl)-5-(trifluoromethyl)-1H-pyrazol-3-yl)urea]	< 10 nM
CN(C(=O)Nc1cc(C(F)(F)F)n([C@H]2CCOC2)n1)C1CCN(c2cnc3[nH]ncc3c2)CC1 [Example I-181, (S)-1-(1-(1H-pyrazolo[3,4-b]pyridin-5-yl)piperidin-4-yl)-1-methyl-3-(1-(tetrahydrofuran-3-yl)-5-(trifluoromethyl)-1H-pyrazol-3-yl)urea]	< 10 nM

Reference: patent publication US20240116892A1, “HETEROCYCLIC AMIDE AND UREA COMPOUNDS AS JAK2 INHIBITORS” (Ajax Therapeutics, Inc., priority 2022, published 2024)
